# Literature values in article PMC10928227, “Assessing biologic/toxicologic effects of extractables from plastic contact materials for advanced therapy manufacturing using cell painting assay and cytotoxicity screening” (Scientific Reports, 2024).
# Like-named read-outs stand apart in the source and are kept apart here.
# Experiments:
# [1] = parameters: method as in ref EURL ECVAM genotoxicity and carcinogencity database, Madia F et al, 2020; settings: scale Mutagenicity I (ECVAM), ref EURL ECVAM genotoxicity and carcinogencity database, Madia F et al, 2020; cited from earlier work
# [2] = cited from earlier work
# [3] = cited from earlier work; remark: listed apart in the source
# [4] = in Vivo, Database Genotoxicity & Carcinogenicity ECVAM, ref EURL ECVAM genotoxicity and carcinogencity database, Madia F et al, 2020
# [5] = in Vivo, Database Genotoxicity OASIS, ref Yu F. Sasaki et. al., 2000, Critical Reviews in Toxicology,30(6),Pp.629-799
# [6] = in Vitro, Database Genotoxicity & Carcinogenicity ECVAM, ref EURL ECVAM genotoxicity and carcinogencity database, Madia F et al, 2020
compound,measurement,setting,value
O=C1CCCCCN1 [105-60-2],"Genetic Toxicity, unscheduled DNA synthesis (UDS in Vivo)",[1],Negative
same,"Chromosome aberration, in Vivo Mammalian Chromosome Aberration Test","[2]; Database Genotoxicity & Carcinogenicity ECVAM, ref EURL ECVAM genotoxicity and carcinogencity database, Madia F et al, 2020",Negative
same,"Chromosome aberration, Micronucleus Assay",[2]; [4],Negative
same,"DNA damage and repair, COMET or Alkaline Elution",[2]; [4],Negative
same,"DNA and protein damage, Liver Micronucleus","[2]; in Vivo, Database Genotoxicity OASIS, ref T. Shirotori, M. Miyagawa, Proceeding of the 26th JEMS Annual Meeting, Hatano, 1997, p. 83",Negative
same,"Chromosome aberration, Micronucleus Assay",[2]; [5],Negative
same,"DNA damage and repair, Single Cell Gel Electrophoresis (comet) Assay",[2]; [5],Negative
same,"Gene mutation, Bacterial Reverse Mutation Assay (e.g. Ames Test)","[3]; Salmonella typhimurium, No Strain Information, in Vitro, Database: Genotoxicity OASIS, ref Mutation Research 584 (2005) 1-256, Kirkland et al.",Negative
same,"Gene mutation, Bacterial Reverse Mutation Assay (e.g. Ames Test)","[3]; Salmonella typhimurium, Strain TA 97, in Vitro, Database: Bacterial mutagenicity ISSSTY, ref CCRIS database,Toxnet databases (Romualdo Benigni)",Negative
same,"Gene mutation, Bacterial Reverse Mutation Assay (e.g. Ames Test)","[3]; Salmonella typhimurium, Strain TA 98, in Vitro, Database: Bacterial mutagenicity ISSSTY, ref CCRIS database,Toxnet databases (Romualdo Benigni)",Negative
same,"Gene mutation, Bacterial Reverse Mutation Assay (e.g. Ames Test)","[3]; Salmonella typhimurium, Strain TA 98, in Vitro, Database: Genotoxicity OASIS, ref P&G",Negative
same,"Gene mutation, Bacterial Reverse Mutation Assay (e.g. Ames Test)","[3]; Salmonella typhimurium, Strain TA 100, in Vitro, Database: Bacterial mutagenicity ISSSTY, ref CCRIS database,Toxnet databases (Romualdo Benigni)",Negative
same,"Gene mutation, Bacterial Reverse Mutation Assay (e.g. Ames Test)","[3]; Salmonella typhimurium, Strain TA 100, in Vitro, Database: Genotoxicity OASIS, ref P&G",Negative
same,"Gene mutation, Bacterial Reverse Mutation Assay (e.g. Ames Test)","[3]; Salmonella typhimurium, Strain TA 102, in Vitro, Database: Bacterial mutagenicity ISSSTY, ref CCRIS database,Toxnet databases (Romualdo Benigni)",Negative
same,"Gene mutation, Bacterial Reverse Mutation Assay (e.g. Ames Test)","[3]; Salmonella typhimurium, Strain TA 1535, in Vitro, Database: Bacterial mutagenicity ISSSTY, ref CCRIS database,Toxnet databases (Romualdo Benigni)",Negative
same,"Gene mutation, Bacterial Reverse Mutation Assay (e.g. Ames Test)","[3]; Salmonella typhimurium, Strain TA 1535, in Vitro, Database: Genotoxicity OASIS, ref P&G",Negative
same,"Gene mutation, Bacterial Reverse Mutation Assay (e.g. Ames Test)","[3]; Salmonella typhimurium, Strain TA 1537, in Vitro, Database: Bacterial mutagenicity ISSSTY, ref CCRIS database,Toxnet databases (Romualdo Benigni)",Negative
same,"Gene mutation, Bacterial Reverse Mutation Assay (e.g. Ames Test)","[3]; Salmonella typhimurium, Strain TA 1537, in Vitro, Database: Genotoxicity OASIS, ref P&G",Negative
same,"Gene mutation, Bacterial Reverse Mutation Assay (e.g. Ames Test)","[3]; Salmonella typhimurium, Strain TA 1538, in Vitro, Database: Bacterial mutagenicity ISSSTY, ref CCRIS database,Toxnet databases (Romualdo Benigni)",Negative
same,"Chromosome aberration, in Vitro Mammalian Chromosome Aberration Test","[3]; in Vitro, Chinese hamster, Chinese Hamster Lung (CHL), Database Genotoxicity OASIS, ref ECHA, Registration dossier",Positive
same,"Chromosome aberration, in Vitro Mammalian Chromosome Aberration Test","[3]; in Vitro, Chinese hamster, Chinese Hamster Lung (CHL), Duration 24÷48 h, Database Genotoxicity OASIS, ref Sofuni, T., Ed. (1998). Data Book of Chromosomal Aberration Test In Vitro, Revised Edition",Negative
same,"Chromosome aberration, Micronucleus Assay",[3]; [6],Negative
same,"Chromosome aberration, in Vitro Mammalian Chromosome Aberration Test",[3]; [6],Negative
same,"DNA damage and repair, COMET or Alkaline Elution",[3]; [6],Negative
same,"Gene mutation, Bacterial Reverse Mutation Assay (e.g. Ames Test)",[3]; [6],Negative
same,"Gene mutation, Mammalian Cell Gene Mutation (MLA HPRT)",[3]; [6],Negative
same,"Gene mutation, Bacterial Reverse Mutation Assay (e.g. Ames Test)","[3]; in Vitro, Salmonella typhimurium, No Strain Information, Database Genotoxicity OASIS, ref Journal of Medicinal Chemistry 48 (1), pp. 312-32, 25, Kazius J, McGuire R., Bursi R",Negative
same,"Gene mutation, Bacterial Reverse Mutation Assay (e.g. Ames Test)","[3]; in Vitro, Salmonella typhimurium, Strain TA 97, Database Genotoxicity OASIS, ref P&G",Negative
same,"Gene mutation, Bacterial Reverse Mutation Assay (e.g. Ames Test)","[3]; in Vitro, Salmonella typhimurium, Strain TA 98, Database Genotoxicity OASIS, ref P&G",Negative
same,"Gene mutation, Bacterial Reverse Mutation Assay (e.g. Ames Test)","[3]; in Vitro, Salmonella typhimurium, Strain TA 100, Database Genotoxicity OASIS, ref P&G",Negative
same,"Gene mutation, Bacterial Reverse Mutation Assay (e.g. Ames Test)","[3]; in Vitro, Salmonella typhimurium, Strain TA 102, OECD Guideline 471, Database Genotoxicity OASIS, ref CCRIS database,Toxnet databases",Negative
same,"Gene mutation, Bacterial Reverse Mutation Assay (e.g. Ames Test)","[3]; in Vitro, Salmonella typhimurium, Strain TA 1535, Database Genotoxicity OASIS, ref P&G",Negative
same,"Gene mutation, Bacterial Reverse Mutation Assay (e.g. Ames Test)","[3]; in Vitro, Salmonella typhimurium, Strain TA 1537, Database Genotoxicity OASIS, ref P&G",Negative
same,"Gene mutation, Bacterial Reverse Mutation Assay (e.g. Ames Test)","[3]; in Vitro, Salmonella typhimurium, Strain TA 1538, Database Genotoxicity OASIS, ref P&G",Negative
same,"Gene mutation, Mammalian Cell Gene Mutation Assay","[3]; in Vitro, T-lymphoma Cell Lines, Database Genotoxicity OASIS, ref Mutation Research 584 (2005) 1-256, Kirkland et al.",Negative
same,"Genetic Toxicity, unscheduled DNA synthesis (UDS in Vitro)","[3]; in Vitro, scale Mutagenicity I (ECVAM), ref EURL ECVAM genotoxicity and carcinogencity database, Madia F et al, 2020",Negative
